Some test systems named below: MOLT-4; CAKI-1; CCRF-CEM; HOP-62; SW-620; A549; M14; SR; SF-539; UO-31; SNB-19; HCT-116; SK-OV-3; COLO 205; NCI-H522; A498; ACHN; OVCAR-5; NCI-H460.
Experiment in all cases: DTP human tumour cell line panel, 48 h

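Test compounds were applied to cells in 96-well plates for 48 hours at 5 doses. At the GI50, growth is halved.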 Activity calls are given as the source filed them. No stated cut-off is given here; in the data, active = GI50 up to about 1.1 µM and inactive = higher. Some results are limits rather than exact numbers.

Take `COC12CCC(C(C(=O)c3ccccc3)=C1C(=O)c1ccccc1)C(O)C2` (stereo not drawn): the GI50 in the test on MOLT-4, with CAKI-1, in the test on CCRF-CEM, in the test on HOP-62, in the test on SW-620 and in the test with A549 was > 100 µM (inactive) in each case. The GI50 in the test on M14, with SR, in the test on SF-539, in the test on UO-31, in the test on SNB-19 and in the test with HCT-116 was > 100 µM (inactive) throughout. Besides, the GI50 was > 100 µM (inactive) with SK-OV-3, > 100 µM (inactive) in the test on COLO 205, > 100 µM (inactive) in the test with NCI-H522 and 67.3 µM (inactive) in the test on A498.
Regarding `COc1ccc(/C(=N\NC(=S)NN)C(c2ccc(OC)cc2)C2C(=O)Oc3ccccc32)cc1` (stereo not drawn), the GI50 was > 10 µM (inactive) in the test on ACHN; > 10 µM (inactive) with OVCAR-5; > 10 µM (inactive) in the test with CAKI-1; 64.9 µM (inactive) with CCRF-CEM; > 10 µM (inactive) in the test on HOP-62; > 10 µM (inactive) with SW-620. The GI50 in the test with A549 was > 10 µM (inactive); in the test with M14, > 10 µM (inactive); in the test with SR, 80.7 µM (inactive); in the test on SF-539 it was > 10 µM (inactive); with UO-31, > 10 µM (inactive); in the test on SNB-19, > 10 µM (inactive). In addition, the GI50 was > 10 µM (inactive) in the test with HCT-116; > 10 µM (inactive) in the test with SK-OV-3; > 10 µM (inactive) in the test with COLO 205; 65.5 µM (inactive) in the test on NCI-H522; > 10 µM (inactive) in the test with A498; > 10 µM (inactive) in the test with NCI-H460.
As to `Nc1ncnc(NC2C=C(CO)C(O)C2O)c1[N+](=O)[O-]` (stereo not drawn), the GI50 in the test with ACHN, in the test with MOLT-4, in the test with OVCAR-5, in the test with CAKI-1, in the test on CCRF-CEM and with HOP-62 was > 100 µM (inactive) each time. Also, the GI50 is 28.1 µM (inactive) in the test on SW-620; > 100 µM (inactive) in the test on A549; > 100 µM (inactive) with M14; > 100 µM (inactive) with SR; > 100 µM (inactive) with SF-539; > 100 µM (inactive) in the test with UO-31. For the same molecule, the GI50 in the test with SNB-19 was > 100 µM (inactive); with HCT-116, 32.9 µM (inactive); in the test with SK-OV-3 it was > 100 µM (inactive); in the test with COLO 205, 60.3 µM (inactive); in the test on A498, > 100 µM (inactive); with NCI-H460, > 100 µM (inactive).
For the molecule `COC1CCC(OC)C(C2(C3CC(OC)CCC3OC)OC(=O)c3ccccc32)C1` (stereo not drawn), the GI50 is > 100 µM (inactive) in the test with ACHN; 14.6 µM (inactive) in the test on MOLT-4; > 100 µM (inactive) in the test with OVCAR-5; > 100 µM (inactive) with CAKI-1; > 100 µM (inactive) in the test with HOP-62; 59.2 µM (inactive) in the test on SW-620. In addition, the GI50 in the test with A549 was > 100 µM (inactive); in the test on M14 it was 64.7 µM (inactive); in the test with SR it was 9.16 µM (inactive); in the test with SF-539, > 100 µM (inactive); with UO-31, 70.3 µM (inactive); with SNB-19, > 100 µM (inactive). The GI50 in the test with HCT-116 was > 100 µM (inactive); in the test on SK-OV-3, > 100 µM (inactive); in the test with COLO 205 it was 28.8 µM (inactive); with NCI-H522 it was 6.85 µM (inactive); with A498, > 100 µM (inactive); with NCI-H460, 86.3 µM (inactive).
`NC(=O)C(N)=O`: the GI50 in the test with ACHN, in the test on MOLT-4, in the test with OVCAR-5, in the test on CCRF-CEM, in the test with HOP-62 and in the test with SW-620 was > 100 µM (inactive) each time. Further, the GI50 in the test with A549, with M14, with SR, with SF-539, in the test on UO-31 and with SNB-19 was > 100 µM (inactive) each time. The GI50 in the test on HCT-116, in the test on SK-OV-3, with COLO 205, in the test on NCI-H522, with A498 and in the test with NCI-H460 was > 100 µM (inactive) in each case.
On to `C=CCCCCn1c2ccccc2c2c(C)c3c[n+](C)ccc3c(C)c21`, for which the GI50 was 2.68 µM (inactive) in the test with ACHN; 0.298 µM (active) with MOLT-4; 1.07 µM (active) with OVCAR-5; 14.3 µM (inactive) in the test on CAKI-1; 0.335 µM (active) in the test with CCRF-CEM; 0.643 µM (active) in the test on HOP-62. Also, the GI50 is 0.296 µM (active) in the test on SW-620; 0.3 µM (active) in the test with A549; 0.979 µM (active) in the test with M14; 0.284 µM (active) in the test with SR; 0.564 µM (active) in the test with SF-539; 5.28 µM (inactive) with UO-31. In addition, the GI50 in the test on SNB-19 was 0.412 µM (active); in the test on HCT-116, 0.244 µM (active); in the test with SK-OV-3, 1.2 µM (inactive); in the test on COLO 205, 0.25 µM (active); with NCI-H522 it was 0.176 µM (active); in the test with A498, 1.44 µM (inactive). Moreover, the GI50 with NCI-H460 was 0.356 µM (active).
For `Cc1cc(C)nc(/C(=N\NC(N)=O)C(=O)Nc2nc3ccc(C)cc3s2)c1`, the GI50 is > 100 µM (inactive) in the test with ACHN; > 100 µM (inactive) in the test on MOLT-4; > 100 µM (inactive) in the test on OVCAR-5; > 100 µM (inactive) in the test with CAKI-1; > 48.1 µM (inactive) in the test on CCRF-CEM; > 100 µM (inactive) in the test with HOP-62. In addition, the GI50 was > 100 µM (inactive) with SW-620; > 100 µM (inactive) in the test on A549; > 100 µM (inactive) in the test with M14; 19.5 µM (inactive) with SR; > 100 µM (inactive) in the test with SF-539; > 100 µM (inactive) with UO-31. In addition, the GI50 in the test with SNB-19 was > 100 µM (inactive); in the test on HCT-116, > 56.5 µM (inactive); with SK-OV-3, > 100 µM (inactive); in the test with COLO 205, > 47.8 µM (inactive); in the test with NCI-H522, > 93.1 µM (inactive); in the test on A498 it was > 100 µM (inactive). In addition, the GI50 with NCI-H460 is > 100 µM (inactive).
In the case of `Cc1c(C(=O)CSc2nc3ccccc3c(=O)n2-c2ccccc2)c(=O)n(-c2ccccc2)n1C`, the GI50 in the test on ACHN is 35.2 µM (inactive); in the test with MOLT-4, > 100 µM (inactive); in the test with OVCAR-5 it was > 100 µM (inactive); in the test on CAKI-1 it was 0.185 µM (active); in the test with CCRF-CEM it was > 100 µM (inactive); with HOP-62 it was 31.4 µM (inactive). Also, the GI50 in the test with SW-620 is > 100 µM (inactive); with A549, 64.9 µM (inactive); in the test with M14, 94.2 µM (inactive); with SR it was 82.2 µM (inactive); with SF-539, 63.2 µM (inactive); with UO-31, 34.8 µM (inactive). Also, the GI50 in the test with SNB-19 was 44.4 µM (inactive); in the test with HCT-116, 68.2 µM (inactive); in the test with SK-OV-3, 19.3 µM (inactive); in the test on COLO 205 it was > 100 µM (inactive); with NCI-H522 it was 27.2 µM (inactive); with A498 it was 42.4 µM (inactive). Besides, in the test on NCI-H460, the GI50 is 37.8 µM (inactive).
For `CC(=O)OCCOCNC(=S)N/N=C(\C)c1cnccn1`, the GI50 in the test on ACHN is 13.6 µM (inactive); with MOLT-4, 14.1 µM (inactive); in the test with OVCAR-5, 7.53 µM (inactive); in the test with CCRF-CEM, 13 µM (inactive); in the test with HOP-62, 27.4 µM (inactive); in the test on SW-620 it was 23.9 µM (inactive). For the same molecule, the GI50 in the test with A549 is 24.5 µM (inactive); in the test with M14, 17.1 µM (inactive); in the test with SR, 18.4 µM (inactive); in the test with SF-539 it was 29.8 µM (inactive); in the test on UO-31 it was 18.9 µM (inactive); with SNB-19 it was 73.1 µM (inactive). For the same molecule, the GI50 in the test on HCT-116 was 34.3 µM (inactive); in the test with SK-OV-3 it was 46.5 µM (inactive); in the test with COLO 205, 28.1 µM (inactive); in the test on NCI-H522, 25.2 µM (inactive); in the test on A498 it was 58.6 µM (inactive); in the test with NCI-H460 it was 20.9 µM (inactive).
Turning to `Cc1ccc2c(c1)C/C(=C\c1ccccc1C(=O)O)C2=O`, the GI50 with ACHN, with MOLT-4, in the test on OVCAR-5, in the test on CAKI-1, in the test on CCRF-CEM and with HOP-62 was > 100 µM (inactive) each time. Also, the GI50 was > 100 µM (inactive) with SW-620; > 100 µM (inactive) in the test on A549; 46.3 µM (inactive) in the test on SR; 50.1 µM (inactive) in the test with SF-539; 98.6 µM (inactive) with UO-31; > 100 µM (inactive) in the test on SNB-19. Besides, the GI50 in the test on HCT-116 is > 100 µM (inactive); in the test on COLO 205 it was 35.6 µM (inactive); with NCI-H522, > 100 µM (inactive); in the test with A498 it was > 100 µM (inactive); with NCI-H460 it was > 100 µM (inactive).
In the case of `COC1=CC(=O)C2C(C1=O)[C@@H]1c3ccccc3C[C@H]21` (stereo partly drawn), the GI50 with ACHN, in the test with MOLT-4, in the test with OVCAR-5, in the test on CAKI-1, with CCRF-CEM and in the test with HOP-62 was > 100 µM (inactive) each time. Besides, the GI50 in the test on SW-620, in the test with A549, in the test on M14, in the test with SR, with SF-539 and in the test on UO-31 was > 100 µM (inactive) in each case. Besides, the GI50 in the test on SNB-19, in the test on SK-OV-3, in the test with COLO 205, with NCI-H522, with A498 and in the test on NCI-H460 was > 100 µM (inactive) in each case.

(Values after ChEMBL document CHEMBL1201862, “PubChem BioAssay data set” (2004).)
